US20040127428A1, “Use of D-ribose, including as a topical vehicle, to promote faster healing, including from surgical procedures” (priority 2002, published 2004)

Key:
wound or burn = assay: healing of wounds and burns with ribose, alone or with antibiotics; format: in vivo; conditions: ribose by itself, taken internally and/or placed on the skin
Source text: TENS devices were part of patent application No. 09/545,121 as one of the non-living source energy devices and how they relate to D-ribose. Shortly before the turn of the 21st century, an important ATP precursor, D-ribose, became commercially available at prices low enough to enable it to be mass marketed. Before this Carniglia, et al, in U.S. Pat. Nos. 4,923,851 and 5,391,550 taught that ribose along with other nutrients helped heal induced skin lesions in mice but only as one of several listed precursors. […] The reason for this is that ribose is not available in quantity in food like other nutrients are. This component of ATP must be synthesized from glucose in the mitochondria in the glucose hexophosphate shunt (also called the pentose phosphate pathway) where a carbon atom is removed tediously by enzymatic action from glucose and phosphorylated over from 72 to 96 hours to provide the phosphorylated ribose radical. […]

actinic keratoses = assay: daily oral intake of D-ribose by the inventor, actinic keratoses; format: in vivo, human; conditions: 10 grams of D-ribose by mouth daily, after several months; inventor on themself
Source text: Another use for D-ribose is with certain skin lesions that are the result of solar-caused degeneration of the skin by exposure to the sun. This condition is commonly referred to as actinic keratosis. […] Since 5% of these lesions degenerate into squamous cell carcinomas, the use of ribose alone would be useful. On the other hand, it also may be used as part of a topical formulation. Topical 5-fluorouracil formulations (5-fluorouracil being a pyrimidine analogue with anti-neoplastic action because certain neoplasms incorporate uracil into their ribonucleic acid more readily than in normal cells) have been used to eradicate actinic keratosis in place of “spot” cryosurgery and curettage, with as much as 5% fluorouracil used. Recently there came on the market a new microsphere-based formulation using a microsphere vehicle called Microsponge® in a topical cream containing only 0.5% fluorouracil. It is applied once daily with good results and less than 1/40th the systemic fluorouracil absorption compared to that of 5% fluorouracil. The course of treatment ranged over a 4-week period. While using D-ribose systemically by itself works slowly on presumed, non-malignant actinic keratoses and senile keratoses when malignancy is questioned (as it always must be even with a histological or clinical diagnosis to the contrary), using D-ribose systemically is not enough for every case.

For O=C[C@H](O)[C@H](O)[C@H](O)CO [D-ribose], which healing (wound or burn) is on record?
The healing was “helps healing significantly”.

And the “large actinic keratoses on forehead and wrists” value (actinic keratoses)?
Its value is “simply disappeared”.
